The values that follow come from patent publication US20150352108A1, “AMINO-PYRIMIDINE COMPOUNDS AS INHIBITORS OF TBK1 AND/OR IKK EPSILON” (Alzheimer's Institute of America, priority 2009, published 2015).

The term IC50 denotes the concentration needed to halve the response being measured.

This assay has as its target T1, IKKε (Homo sapiens, UniProt Q14164).
T1 construct: His-tag; made in house; host or cells: Sf9 insect cells
T1 sequence (Q14164 1-716): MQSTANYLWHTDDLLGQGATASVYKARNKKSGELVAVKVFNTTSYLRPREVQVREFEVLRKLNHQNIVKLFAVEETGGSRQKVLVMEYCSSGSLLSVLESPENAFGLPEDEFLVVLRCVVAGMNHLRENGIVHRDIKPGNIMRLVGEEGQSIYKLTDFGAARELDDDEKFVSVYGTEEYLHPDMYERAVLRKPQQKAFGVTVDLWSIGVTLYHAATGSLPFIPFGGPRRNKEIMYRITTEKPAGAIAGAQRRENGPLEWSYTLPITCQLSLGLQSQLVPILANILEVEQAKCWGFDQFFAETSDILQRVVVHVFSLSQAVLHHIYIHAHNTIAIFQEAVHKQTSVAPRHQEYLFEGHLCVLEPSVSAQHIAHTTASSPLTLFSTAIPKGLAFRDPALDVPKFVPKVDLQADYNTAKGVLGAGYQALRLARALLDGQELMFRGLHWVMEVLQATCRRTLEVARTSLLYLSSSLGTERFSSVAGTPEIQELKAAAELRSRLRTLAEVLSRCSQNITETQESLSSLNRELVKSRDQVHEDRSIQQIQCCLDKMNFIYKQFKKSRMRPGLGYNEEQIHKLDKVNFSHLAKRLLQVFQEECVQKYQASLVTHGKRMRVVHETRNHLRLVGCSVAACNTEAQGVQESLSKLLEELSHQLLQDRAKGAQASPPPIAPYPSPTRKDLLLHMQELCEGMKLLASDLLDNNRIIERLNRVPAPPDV
Description: In-vitro IKKε kinase assay ([γ33]ATP filter-plate). The assay is classed as biochemical. The conditions noted are these: text bins; read-out: IC50 for inhibition of the kinase activity of IKKε. As for the experimental part: IKKε enzyme was produced as a His-tag fusion in Sf9 cells and used at a final concentration of […]. TBK1 enzyme was produced as a His-tag fusion in Sf9 cells and used at a final concentration of 0.1 μg/ml. Kinase reactions were carried out in reaction buffer using myelin basic protein (Millipore, Ballerica, Mass.) or casein (Sigma, St. Louis, Mo.) as substrate at an ATP concentration equal to twice the Km,ATP value for each enzyme, corresponding to 32 μM ATP for IKKε and 60 μM ATP for TBK1, in the presence of 0.3 μCi [γ^33]ATP (PerkinElmer, Waltham, Mass.). Final enzyme concentrations were 0.1 or 0.015 μg/ml (IKKε) and 0.1 or 0.02 μg/ml (TBK1), representing “normal” and “sensitized” assay conditions respectively. Test compounds (or DMSO solvent as a control) were added prior to initiation of the reactions. Reactions were terminated after 30-45 minutes by adding 3% phosphoric acid. Terminated reactions were transferred to P-81 cellulose phosphate filterplates (Whatman, Inc., Piscataway, N.J.) and washed with 1% phosphoric acid on a vacuum apparatus. After air drying, scintillant (PerkinElmer, Waltham, Mass.) was added and the plates were read on a PerkinElmer TopCount NXT instrument. Counts were normalized to DMSO controls after background subtraction.
On to `N#Cc1cc(-c2ccnc(Nc3ccc(N4CCOCC4)cc3)n2)ccc1OC1CN(C=O)C1` [Example 101, 2-[(1-formylazetidin-3-yl)oxy]-5-(2-{[4-(morpholin-4-yl)phenyl]amino}pyrimidin-4-yl)benzonitrile], for which the IC50 was 50 to 500 nM. With `N#Cc1cc(-c2ccnc(Nc3ccc(N4CCOCC4)cc3)n2)ccc1Cl` [Example 102, 2-Chloro-5-(2-{[4-(morpholin-4-yl)phenyl]amino}pyrimidin-4-yl)benzonitrile] the figure was 5 to 50 nM; with `COc1ccc(Nc2nccc(-c3ccc(OCc4ccccc4)c(C#N)c3)n2)cc1OC` [Example 106, 2-(Benzyloxy)-5-{2-[(3,4-dimethoxyphenyl)amino]pyrimidin-4-yl}benzonitrile], 5 to 50 nM. For `N#Cc1cc(-c2ccnc(Nc3ccc(N4CCOCC4)cc3)n2)ccc1OCC1CCN(C(=O)C2C[C@H]2F)CC1` (stereo partly drawn) [Example 108, 2-[(1-{[(2R)-2-fluorocyclopropyl]carbonyl}piperidin-4-yl)methoxy]-5-(2-{[4-(morpholin-4-yl)phenyl]amino}pyrimidin-4-yl)benzonitrile], the IC50 fell in the range of 50 to 500 nM.

Take `N#Cc1cc(-c2ccnc(Nc3ccc(N4CCOCC4)cc3)n2)ccc1OC1CCN(C(=O)[C@@H](O)C(F)(F)F)CC1` [Example 113, 5-(2-{[4-(morpholin-4-yl)phenyl]amino}pyrimidin-4-yl)-2-({1-[(2R)-3,3,3-trifluoro-2-hydroxypropanoyl]piperidin-4-yl}oxy)benzonitrile]: the IC50 is 5 to 50 nM. Regarding `N#Cc1cc(-c2ccnc(Nc3ccc(N4CCOCC4)c(C(F)(F)F)c3)n2)ccc1OC1CCOCC1` [Example 120, 5-(2-{[4-(morpholin-4-yl)-3-(trifluoromethyl)phenyl]amino}pyrimidin-4-yl)-2-(tetrahydro-2H-pyran-4-yloxy)benzonitrile], the IC50 is 5 to 50 nM. For the compound `CC(=O)N1CC(COc2ccc(-c3ccnc(Nc4ccc(N5CCOCC5)cc4)n3)cc2C#N)C1` [Example 125, 2-[(1-acetylazetidin-3-yl)methoxy]-5-(2-{[4-(morpholin-4-yl)phenyl]amino}pyrimidin-4-yl)benzonitrile], the IC50 was 50 to 500 nM.

For the compound `N#Cc1cc(-c2ccnc(Nc3ccc(N4CCOCC4)cc3)n2)ccc1OC1CN(C(=O)CO)C1` [Example 131, 2-{[1-(hydroxyacetyl)azetidin-3-yl]oxy}-5-(2-{[4-(morpholin-4-yl)phenyl]amino}pyrimidin-4-yl)benzonitrile], the IC50 was 50 to 500 nM.

For the compound `N#Cc1cc(-c2ccnc(Nc3ccc(N4CCOCC4)cc3)n2)ccc1SC1CCCCC1` [Example 137, 2-(cyclohexylsulfanyl)-5-(2-{[4-(morpholin-4-yl)phenyl]amino}pyrimidin-4-yl)benzonitrile], the IC50 is 50 to 500 nM. Regarding `N#Cc1cc(-c2ccnc(Nc3ccc(N4CCOCC4)cc3)n2)ccc1OC1CCN(C(=O)Cn2ccnc2)CC1` [Example 139, 2-{[1-(1H-imidazol-1-ylacetyl)piperidin-4-yl]oxy}-5-(2-{[4-(morpholin-4-yl)phenyl]amino}pyrimidin-4-yl)benzonitrile], the IC50 lay in the range of 5 to 50 nM. For `C[C@@H](O)C(=O)N1CCC(Oc2ccc(-c3ccnc(Nc4ccc(N5CCOCC5)cc4)n3)cc2C#N)CC1` [Example 140, 2-({1-[(2R)-2-hydroxypropanoyl]piperidin-4-yl}oxy)-5-(2-{[4-(morpholin-4-yl)phenyl]amino}pyrimidin-4-yl)benzonitrile], the IC50 was in the range of 5 to 50 nM.

As to `C[C@@H](O)C(=O)N1CCC(Oc2ccc(-c3ccnc(Nc4ccc(N5CCOCC5)cc4)n3)cc2C#N)C1` (stereo partly drawn) [Example 142, 2-({1-[(2R)-2-hydroxypropanoyl]pyrrolidin-3-yl}oxy)-5-(2-{[4-(morpholin-4-yl)phenyl]amino}pyrimidin-4-yl)benzonitrile], the IC50 lay within 50 to 500 nM. With `COc1ccc(Nc2nccc(-c3cc(C#N)cc(OCc4ccccc4)c3)n2)cc1OC` [Example 145, 3-(Benzyloxy)-5-{2-[(3,4-dimethoxyphenyl)amino]pyrimidin-4-yl}benzonitrile] the figure was 50 to 500 nM. With `N#Cc1cc(-c2ccnc(Nc3cccc(S(N)(=O)=O)c3)n2)ccc1OC1CCOCC1` [Example 146, 3-({4-[3-cyano-4-(tetrahydro-2H-pyran-4-yloxy)phenyl]pyrimidin-2-yl}amino) benzenesulfonamide] the figure was 5 to 50 nM; with `CC(=O)OC(C)C(=O)Nc1ccc(-c2ccnc(Nc3ccc(N4CCOCC4)cc3)n2)cc1C#N` (stereo not shown) [Example 147, 1-{[2-cyano-4-(2-{[4-(morpholin-4-yl)phenyl]amino}pyrimidin-4-yl)phenyl]amino}-1-oxopropan-2-yl acetate], 50 to 500 nM; with `N#Cc1cc(-c2ccnc(Nc3ccc(N4CCOCC4)cc3)n2)ccc1OC1CCN(C(=O)C2CC2)C1` (stereo not shown) [Example 151, 2-{[1-(cyclopropylcarbonyl)pyrrolidin-3-yl]oxy}-5-(2-{[4-(morpholin-4-yl)phenyl]amino}pyrimidin-4-yl)benzonitrile], 50 to 500 nM.

Consider `CC(C)C(=O)NCCOc1ccc(-c2ccnc(Nc3ccc(N4CCOCC4)cc3)n2)cc1C#N` [Example 153, N-{2-[2-cyano-4-(2-{[4-(morpholin-4-yl)phenyl]amino}pyrimidin-4-yl)phenoxy]ethyl}-2-methylpropanamide], for which the IC50 is 50 to 500 nM. Take `CC(=O)N1CCC(CCOc2ccc(-c3ccnc(Nc4ccc(N5CCOCC5)cc4)n3)cc2C#N)CC1` [Example 156, 2-[2-(1-acetylpiperidin-4-yl)ethoxy]-5-(2-{[4-(morpholin-4-yl)phenyl}amino}pyrimidin-4-yl)benzonitrile]: the IC50 lay in the range of 5 to 50 nM. With `CN(C)CC(=O)N1CCC(Oc2ccc(-c3ccnc(Nc4ccc(N5CCOCC5)cc4)n3)cc2C#N)CC1` [Example 160, 2-{[1-(N,N-dimethylglycyl)piperidin-4-yl]oxy}-5-(2-{[4-(morpholin-4-yl)phenyl]amino}pyrimidin-4-yl)benzonitrile], the IC50 lay in the range of 50 to 500 nM. As for `CC(=O)N1CCCC(COc2ccc(-c3ccnc(Nc4ccc(N5CCOCC5)cc4)n3)cc2C#N)C1` (stereo not shown) [Example 161], the IC50 was in the range of 5 to 50 nM. On to `COc1ccc(Nc2nccc(-c3ccc(OC(C)c4ccccc4)c(C#N)c3)n2)cc1OC` (stereo not shown) [Example 163], for which the half-maximal inhibitory concentration (IC50) is 50 to 500 nM.

For the compound `CN(C)C(=O)N1CCC(Oc2ccc(-c3ccnc(Nc4ccc(N5CCOCC5)cc4)n3)cc2C#N)CC1` [Example 166, 4-[2-Cyano-4-(2-{[4-(morpholin-4-yl)phenyl]amino}pyrimidin-4-yl)phenoxy]-N,N-dimethylpiperidine-1-carboxamide], the IC50 lay within 50 to 500 nM. With `CS(=O)(=O)N(c1ccc(-c2ccnc(Nc3ccc(N4CCOCC4)cc3)n2)cc1C#N)S(C)(=O)=O` [Example 167, N-[2-Cyano-4-(2-{[4-(morpholin-4-yl)phenyl]amino}pyrimidin-4-yl)phenyl]-N-(methylsulfonyl) methanesulfonamide], the half-maximal inhibitory concentration (IC50) lay in the range of 5 to 50 nM. On to `COc1ccc(-c2ccnc(Nc3cc(CNCCO)c(OC)c(OC)c3)n2)cc1C#N` [Example 173, 5-{2-[(3-{[(2-Hydroxyethyl)amino]methyl}-4,5-dimethoxyphenyl)amino]pyrimidin-4-yl}-2-methoxybenzonitrile], for which the IC50 was 5 to 50 nM. Regarding `COc1ccc(-c2ccnc(Nc3cc(CN(C)C)c(OC)c(OC)c3)n2)cc1C#N` [Example 174, 5-[2-({3-[(Dimethylamino)methyl]-4,5-dimethoxyphenyl}amino)pyrimidin-4-yl]-2-methoxybenzonitrile], the IC50 was 5 to 50 nM.

With `CC(C)COC(=O)Nc1ccc(-c2ccnc(Nc3ccc(N4CCOCC4)cc3)n2)cc1C#N` [Example 180, 2-methylpropyl [2-cyano-4-(2-{[4-(morpholin-4-yl)phenyl]amino}pyrimidin-4-yl)phenyl]carbamate], the IC50 was in the range of 50 to 500 nM. As to `COc1ccc(Nc2nccc(-c3ccc(Cl)c(C#N)c3)n2)cc1OC` [Example 182, 2-Chloro-5-{2-[(3,4-dimethoxyphenyl)amino]pyrimidin-4-yl}benzonitrile], the IC50 was 5 to 50 nM. For the compound `CC(=O)Nc1cccc(Nc2nccc(-c3ccc(OCc4ccccc4)c(C#N)c3)n2)c1` [Example 185, N-[3-({4-[4-(Benzyloxy)-3-cyanophenyl]pyrimidin-2-yl}amino)phenyl] acetamide], the IC50 fell in the range of 5 to 50 nM.
